Measured values taken from article PMC10767194 (The Journal of Biological Chemistry, 2023).
Several values for one entry are separate records, joined by “and”; a condition that tells them apart may be missing. Equal entries are not always repeated. Entries after “also recorded” stand apart in the source; their conditions may differ.

What was measured:
[1] = molecular target: T1, Cdk9/CycT1 (Homo sapiens, UniProt P50750); experiment: SPR single-cycle kinetics, Cdk9/CycT1; conditions: 1:1 binding model
T1 construct: Full-length, human, WT Cdk9 (residues 1–372, UniProt P50750); made in house; host or cells: Cdk9: Sf9 insect cells; CycT1: E. coli
T1 sequence (P50750 whole entry, the tested form may be a part): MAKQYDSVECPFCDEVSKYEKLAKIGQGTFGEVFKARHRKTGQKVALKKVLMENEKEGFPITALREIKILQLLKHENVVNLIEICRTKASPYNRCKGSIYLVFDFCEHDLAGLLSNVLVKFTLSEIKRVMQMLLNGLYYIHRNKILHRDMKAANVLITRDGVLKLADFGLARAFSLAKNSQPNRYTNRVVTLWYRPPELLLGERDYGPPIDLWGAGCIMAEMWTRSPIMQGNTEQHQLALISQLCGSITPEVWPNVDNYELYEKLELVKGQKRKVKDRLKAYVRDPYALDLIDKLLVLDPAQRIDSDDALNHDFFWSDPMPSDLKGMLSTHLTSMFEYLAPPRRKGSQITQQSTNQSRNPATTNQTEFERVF
T1 sequence (O60563 1-272 partner limits assumed): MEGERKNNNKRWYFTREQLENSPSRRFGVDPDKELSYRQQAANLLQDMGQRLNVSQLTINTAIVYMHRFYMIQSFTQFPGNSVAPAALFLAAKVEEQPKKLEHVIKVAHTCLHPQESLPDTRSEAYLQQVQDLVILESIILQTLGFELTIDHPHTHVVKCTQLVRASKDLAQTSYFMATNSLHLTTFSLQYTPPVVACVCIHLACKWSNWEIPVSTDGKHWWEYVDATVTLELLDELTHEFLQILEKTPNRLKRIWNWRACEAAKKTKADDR
Procedure: The protein kinases were immobilized on a CM5 chip using the amine-coupling method. […] The fully active and T-loop phosphorylated kinase preparations of Cdk12∗/CycK and Cdk13∗/CycK were obtained through coexpression with Cdk-activating kinase 1 (CAK1) from Saccharomyces cerevisiae. […] For comparison, we measured the affinity of NVP-2 for active kinases Cdk12∗/CycK and its proposed target Cdk9/CycT1 by SPR.
SPR experiments were conducted on a Biacore 8K (Cytiva) device. The system was equilibrated in running buffer (20 mM Tris pH 8, 150 mM NaCl, 1 mM tris(2-carboxyethyl)phosphine, 0.1 mM MgCl2, 0.05% Tween20, and 2% DMSO) at 25 °C. Flow cell 1 and 2 surfaces of a CM5 sensor chip (Cytiva) were conditioned with 50 mM NaOH at a flow rate of 30 μl/min for 15 s and subsequently activated with a 1:1 mix of 0.1 M N-hydroxysuccinimide (NHS) and 0.1 M 3-(N,N-dimethylamino) propyl-N-ethyl-carbodiimide (EDC) at a flow rate of 10 μl/min for 7 min. The flow system was washed with 1 M enthanolamine (pH 8). WT and mutant kinases Cdk12/CycK, Cdk13/CycK and Cdk9/CycT1 were diluted in Mes (pH 6.5) to a final concentration of 2 μM. Immobilization of kinases was performed in running buffer without DMSO using the amine coupling method on flow cell 2 surface for 160 s at a flow rate of 10 μl/min. Free binding sites were blocked with 1 M ethanolamine pH 8.0 (10 μl/min) for 7 min. […]

[2] = molecular target: T2, Cdk12/CycK (Homo sapiens, UniProt Q9NYV4); experiment: radioactive in vitro kinase assay, Cdk12/CycK; assay type: biochemical; conditions: 20 min; for inhibitory effect on Cdk12/CycK activity, in words: 0, 0.1, 1, 10, 100 μM compound, 0.2 μM Cdk12, 0.2 mM ATP, His-c-Myc; for IC50: 0.2 μM kinase, 0.2 mM ATP, 50 μM His-c-Myc, sigmoidal fit
T2 construct: GST (TEV site) (N, cleaved yes); made in house; host or cells: Sf9 insect cells, co-expressed with S. cerevisiae CAK1
T2 sequence (Q9NYV4 714-1063, one chain of several): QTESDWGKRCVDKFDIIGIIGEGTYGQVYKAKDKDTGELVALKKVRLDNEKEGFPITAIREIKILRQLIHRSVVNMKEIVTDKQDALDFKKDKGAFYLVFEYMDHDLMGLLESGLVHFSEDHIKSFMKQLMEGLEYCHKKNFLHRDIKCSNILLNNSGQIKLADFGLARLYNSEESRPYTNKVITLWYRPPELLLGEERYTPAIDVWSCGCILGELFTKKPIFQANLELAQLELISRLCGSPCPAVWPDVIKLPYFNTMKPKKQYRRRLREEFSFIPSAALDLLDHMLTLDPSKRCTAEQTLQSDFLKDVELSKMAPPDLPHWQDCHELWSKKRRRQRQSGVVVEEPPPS
Procedure: To a concentration of 0.2 μM kinase and 0.2 mM ATP, a compound concentration ranging from 0.1 nM to 1 mM was applied. Kinase reactions were started by the addition of 100 μM CTD peptide containing three hepta-repeats continuously prephosphorylated at position S7 (pS7-CTD[3]) and terminated after 60 min incubation time. In vitro IC50-values were determined by applying a sigmoidal fit to dose-response measurements (Fig. 1A).
Cdk12 kinase (0.2 μM) in the presence of 0.2 mM ATP were supplemented with respective compounds at concentrations of 0, 0.1, 1, 10, and 100 μM for 5 min. Upon addition of 50 μM His-c-Myc substrate the kinase assay reaction was conducted for 20 min.
Radioactive kinase activity assays were performed in a total volume of 15 μl per sample in kinase assay buffer (50 mM Hepes/pH 7.6, 34 mM KCl, 7 mM MgCl2, 5 mM β-glycerol phosphate, and 2.5 mM dithioerythritol). Preincubation of 0.2 μM or 0.02 μM recombinant protein kinase with indicated concentrations of respective inhibitor and 0.2 to 2 mM ATP containing 0.45 mCi [^32P]-γ-ATP/ml (PerkinElmer) was carried out for 5 min. Kinase reactions were started by addition of substrate protein (10 μM GST-Rb1 for Cdk4/CycD3, 10 μM GST-CTD[52] for Cdk7/CycH/MAT1, 50 μM His-c-Myc for all others) and incubated for 20 min at 30 °C in a shaking incubator at 300 rpm. For pS7-CTD[3] peptide, the substrate concentration was increased to 100 μM and assays were performed for 60 min. Reactions were terminated by the addition of EDTA to a final concentration of 50 mM. Reaction samples were separately spotted onto Amersham Protran nitrocellulose membranes (GE HealthCare) and subsequently washed three times for 5 min in PBS. Samples were transferred to 4 ml liquid scintillation vials and 2 ml liquid scintillator (Ultima Gold) were added. Radioactive counts were determined in a Beckman Liquid Scintillation Counter (Beckman Coulter) for 1 min. […] For analysis of dose response measurements and IC50 value determination, data of inhibitor-supplemented samples were normalized to DMSO solvent controls and their activity plotted against the inhibitor concentration. IC50 values were extracted from triplicate measurements by sigmoidal curve fitting using DataGraph (v. 5.0; https://www.visualdatatools.com/DataGraph/) or were determined by applying the Morrison quadratic equation for tight binding inhibitors using GraphPad Prism 10 (https://www.graphpad.com/) ([40]).

[3] = molecular target: T2, Cdk12/CycK; experiment: SPR single-cycle kinetics, active Cdk12*/CycK; conditions: T-loop phosphorylated active kinase (CAK1 coexpressed), 1:1 binding model
[4] = molecular target: T3, Cdk12 kinase domain (residues 714–1063), T-loop phosphorylated, coexpressed with CAK1 (human, UniProt Q9NYV4 714-1063, phosphothreonine at 893 (pT893)); experiment: crystal structure; Cdk12/CycK at 12 mg/ml with 5-fold excess of SR-4835; hanging drop vapor diffusion at 15 °C; 0.1 M Mops pH 6.5, 30% PEG mix, 0.1 M NDSB; 2.68 Å; conditions: both partners purified
T3 construct: kinase domain of human Cdk12, residues 714–1063, UniProt Q9NYV4; synthetic codon-optimised gene; The final model of 8P81 holds residues 716 to 1032 of Cdk12; also called cyclin-dependent kinase 12; not shown: GST, N-terminal, cleaved
T3 sequence (Q9NYV4 714-1063): as the sequence (Q9NYV4 714-1063, one chain of several) above

Molecule	inhibitory effect on Cdk12/CycK activity, in words [2]	IC50 [2] [nM]	further results
CCN1CCN(Cc2ccc(Nc3ncc(F)c(-c4cc(F)c5nc(C)n(C(C)C)c5c4)n3)nc2)CC1 [abemaciclib]	modest effects; also recorded: only weak efficacy	1300	
CCc1cnn2c(NCc3ccc[n+]([O-])c3)cc(N3CCCC[C@H]3CCO)nc12 [dinaciclib]	highest potency		
CN1CC[C@H](c2c(O)cc(O)c3c(=O)cc(-c4ccccc4Cl)oc23)[C@H](O)C1 [flavopiridol]	modest effects		
CC(=O)c1c(C)c2cnc(Nc3ccc(N4CCNCC4)cn3)nc2n(C2CCCC2)c1=O [palbociclib]	no inhibitory effect		
CN(C)C(=O)c1cc2cnc(Nc3ccc(N4CCNCC4)cn3)nc2n1C1CCCC1 [ribociclib]	no inhibitory effect		
CN1CCN(c2ccc(Nc3ncc4cc5n(c4n3)C3(CCCCC3)CNC5=O)nc2)CC1 [trilaciclib]	modest effects; also recorded: only weak efficacy	1340	
cyclin K cyclin box domains (residues 1–267) (domain or fragment, human, UniProt O75909 1-267, looked up, cyclin box domains of human cyclin K, residues 1–267, UniProt O75909; synthetic codon-optimised gene; The final model of 8P81 holds residues 20 to 260 of CycK; also called CycK; not shown: GST, N-terminal, cleaved) MKENKENSSPSVTSANLDHTKPCWYWDKKDLAHTPSQLEGLDPATEARYRREGARFIFDVGTRLGLHYDTLATGIIYFHRFYMFHSFKQFPRYVTGACCLFLAGKVEETPKKCKDIIKTARSLLNDVQFGQFGDDPKEEVMVLERILLQTIKFDLQVEHPYQFLLKYAKQLKGDKNKIQKLVQMAWTFVNDSLCTTLSLQWEPEIIAVAVMYLAGRLCKFEIQEWTSKPMYRRWWEQFVQDVPVDVLEDICHQILDLYSQGKQQMPH			binding result [4]: binds

Further lines, with some results ahead:

inhibitory effect on Cdk12/CycK activity, in words [2]	IC50 [2] [nM]	Molecule	further results
highest potency	40.9	COC[C@@H](C)NC1CCC(Nc2cc(-c3cccc(NCC4(C#N)CCOCC4)n3)c(Cl)cn2)CC1 (some centres unmarked) [NVP-2]	Kd [1]: 0.1 nM; Kd [3]: 2.9 nM and 2.88 nM
modest effects	87.2	CN(C)C/C=C/C(=O)Nc1ccc(C(=O)Nc2cccc(Nc3ncc(Cl)c(-c4c[nH]c5ccccc45)n3)c2)cc1 [THZ1]	
modest effects	174	CN(C)C/C=C/C(=O)Nc1ccc(C(=O)N2CCC[C@@H](Nc3ncc(Cl)c(-c4c[nH]c5ccccc45)n3)C2)cc1 [THZ531]	
